Experimental data as given in patent US8455552B2, “Composition comprising S-allylmercapto-N-acetylcysteine (ASSNAC) for up-regulation of cellular glutathione level” (RAMOT et Tel Aviv University Ltd., priority 2007, dated 2013).
Where two headings read alike, the source gives them in different places.

What was measured:
[1] = system: Bovine aortic endothelial cells (EC); test: Determination of total glutathione in endothelial cell cultures; type: cell-based; settings: for glutathione cellular level as a function of time: FIG. 2A; for EC50: Bos taurus, Endothelial cell, concentration giving half-maximal increase of glutathione level, read-out: HALF-maximal (effect of increased glutathione level); for Maximal effect (increased glutathione level): concentration giving maximal increase of glutathione level
Experimental: (§1) Bovine aortic endothelial cells (EC) were prepared from bovine aorta, cultured in DMEM supplemented with 5% fetal calf serum, 5% calf serum, 2 mM L-glutamine, 100 U/ml penicillin, 100 μg/ml streptomycin, 12.5 U/ml nystatin and FGF-2 (3 ng/ml; added every 48 hours). Cultures were incubated at 37° C. in a humidified 10% CO2 atmosphere and passages 12-18 were used for experiments.
(§2) EC cultures were incubated in the presence or absence of PDTC, NAC, ASSNAC and their combinations. At the end of the incubation, cells were washed, collected into 10 mM HCl and further lyzed by samples freezing (in liquid nitrogen) and thawing, 3 times. Cell protein was precipitated by addition of SSA (10%) followed by centrifugation at 10,000 g and supernatant was collected for glutathione determination. Total glutathione (GSH+GSSG) was determined by the Anderson recycling method. Briefly, a reaction mixture containing phosphate buffer, EDTA, DTNB, NADPH and glutathione reductase was added to 96-wells plates already containing 20 μl of the experimental samples or a GSSG standard. The plates were shaken and OD at 405 nm was monitored at 10 sec intervals for 130 sec in a micro-plate reader. To determine the GSSG level in the total cellular glutathione, 2-vinylpyridine was used to conjugate GSH and remove it from the mixture followed by total glutathione determination as described above. For normalization, the protein pellet of each sample was lyzed in 0.2 N NaOH and quantified by the Lowry method.

heme oxygenase-1 (HO-1) = test: Gene expression by real-time PCR in EC: HO-1; type: cell-based, bovine; settings: 3 hours; NAC 2 mM, ASSNAC 0.2 mM
Source text: (§3) Total RNA was collected by EZ-RNA 2 kit, treated with DNAse, converted to cDNA and assayed in triplicate by real-time quantitative PCR using a ABI Prism 7700 Sequence Detector System (Applied Biosystem, Foster City, Calif., USA), with Absolute SYBR Green ROX mix and analyzed (SDS 2.1 software). Primers: human glutamate-cysteine-ligase modifier subunit (GCLM)—Forward: 5′[…] GTAAC3′ • and Reverse: 5′[…]3′; • Human heme oxygenase-1 (HO-1)—Forward: 5′[…]3′ • and Reverse: 5′[…]3′; • bovine TGF β2—Forward: […] • and Reverse: […]; • bovine TNF-alfa—Forward: […] • and Reverse: […]; • bovine ICAM-1—Forward: […] • and Reverse: […]; • bovine VCAM-1 Forward: […] • and Reverse: […]. • Results were normalized based on the quantity of human β-actin. Primers—Forward: 5′CCTGGCACCCAGCACAAT3′ and Reverse: 5′[…]3′.
(§4) Increased expression of the phase II detoxifying enzymes by cells is indicative of increased protection against oxidative stress. In order to determine the effect of NAC and ASSNAC on gene expression in EC, cells were treated with NAC (2 mM) and ASSNAC (0.2 mM) for 3 hours following by extraction of mRNA. The expression of GCLM and HO-1 was then studied by Real-Time PCR. […] Without being bound by any theory or mechanism of action, the GCLM activity and the cystein level are considered to be the rate limiting step of the glutathione synthesis. […]

Endothelial cells (EC) = test: Cytotoxicity test, BuOOH-stimulated cytotoxicity in endothelial cells (Neutral Red); type: cell-based, bovine; settings: pre-incubation 18 hours; ASSNAC 0.2 mM vs NAC 1 mM and CSSA 0.2 mM; BuOOH 0.1 mM 3 hours
Experimental: as §1
Endothelial cells (EC; 10^4 cells/well) were grown till confluency in fibronectin-coated (5 μg/ml) 96 wells plates. Confluent EC were pre-incubated with ASSNAC 0.2 mM, CSSA 0.2 mM and NAC 1 mM for 18 hours in growth medium at 37° C. Subsequently, cells were washed with serum free DMEM medium and treated with […] ([…]) 0.1 mM for 3 hours. The number of viable cells was determined by Neutral Red (NR) staining method. After removing the culture medium, cells were incubated in NR working solution (1:100 in DCCM) for 2 hours at 37° C. […] Optical density of the dye was determined at 550 nm in an ELISA reader. The cell cytotoxicity was calculated by the following formula: Cytotoxicity (%)=[1−NR uptake in treated wells/NR uptake in control wells]×100 The control (untreated wells) were determined as 0% cytotoxity, the average of triplicates of each treatment is shown.

[2] = system: human neuroblastomas SH-SY5Y cell line; test: Cellular glutathione level in SH-SY5Y cultures; type: cell-based
Experimental: In order to establish the potential effect of ASSNAC on glutathione up-regulation in the nerve system as a mean to protect against neurodegenerative diseases the effect of ASSNAC on the human neuroblastomas SH-SY5Y cell line was studied. The cells were cultured in DMEM supplemented with 10% fetal calf serum, 2 mM L-glutamine, 100 U/ml penicillin, 100 μg/ml streptomycin, 12.5 U/ml nystatin. Cultures were incubated at 37° C. in a humidified 10% CO2 atmosphere.
as §2
The effect was observable at a concentration of 0.05 mM with a 2.4-fold maximal increase in glutathione at a concentration of 0.2 mM. The results are presented as mean±SD (n=2). A significant increase in glutathione was determined by ANOVA analysis (p<0.005; FIG. 8A).
Confluent SH-SY5Y cultures were exposed to ASSNAC (0.2 mM) for various time periods. The cultures were then washed and the cellular level of total glutathione was determined. […] The results are presented as mean±SD (n=2). A significant increase in glutathione was determined by ANOVA analysis (p<0.005; FIG. 8B).

[3] = system: glutamate-cysteine-ligase modifier subunit (GCLM); test: Gene expression by real-time PCR in EC: GCLM; type: cell-based, bovine; settings: 3 hours; NAC 2 mM, ASSNAC 0.2 mM
Source text: as §3, §4

VCAM-1 = test: Gene expression by real-time PCR in EC: VCAM-1; type: cell-based, bovine; settings: 3 hours; ASSNAC 0.2 mM, LPS 1 μg/ml
Source text: as §3
(§5) The effect of ASSNAC on gene expression was further shown to be specific. Endothelial cells (EC) were treated by ASSNAC (0.2 mM) and LPS (1 μg/ml) for 3 hours following by mRNA extraction. The expression of the inflammatory genes TGF β2, ICAM-1, VCAM-1 and TNFα was then studied by Real-Time PCR. […] Only TGF β2 was induced by ASSNAC and to a lesser extent by LPS. TNFα expression was not induced by either ASSNAC or LPS (Table 2B).

TNFα = test: Gene expression by real-time PCR in EC: TNFα; type: cell-based, bovine; settings: 3 hours; ASSNAC 0.2 mM, LPS 1 μg/ml
Source text: as §3, §5

[4] = system: human neuroblastomas SH-SY5Y cell line; test: Protection of SH-SY5Y cultures against tBuOOH cytotoxicity (neutral red); settings: then tBuOOH 1 mM 3 hours
TGF β2 = test: Gene expression by real-time PCR in EC: TGF β2; type: cell-based, bovine; settings: 3 hours; ASSNAC 0.2 mM, LPS 1 μg/ml
Source text: as §3, §5

ICAM-1 = test: Gene expression by real-time PCR in EC: ICAM-1; type: cell-based, bovine; settings: 3 hours; ASSNAC 0.2 mM, LPS 1 μg/ml
Source text: as §3, §5

[5] = system: Bovine aortic endothelial cells (EC); settings: from L. Horev-Azaria, Ph.D. Thesis, cited from earlier work
[6] = 24 hours, increasing concentrations

Row | Compound | Maximal Fold Increase (glutathione level) [1] | glutathione cellular level as a function of time ([1]; 0.2 mM) | EC50 [1] [µM] | Maximal effect (increased glutathione level) [1] [µM] | HO-1 gene expression (heme oxygenase-1 (HO-1)) | GCLM gene expression [3] | VCAM-1 gene expression (VCAM-1) | concentration of maximal effect on glutathione level [1, 6] [mM] | TNFα gene expression (TNFα) | TGF β2 gene expression (TGF β2) | ICAM-1 gene expression (ICAM-1) | also measured
1 | C=CCSSC[C@H](N)C(=O)O [CSSA, S-allylmercaptocysteine] | 2 | significant increase in glutathione cellular level | 70 | 200 | – | – | – | – | – | – | – | speed of glutathione response ([1]; 0.2 mM, CSSA compared with ASSNAC): faster response; distribution of glutathione up-regulation between GSH and GSSG ([1]; 0.3 mM CSSA, FIG. 4): increase in GSH but not in GSSG level; GSSG level as share of the total cellular glutathione level ([1]; 0.3 mM CSSA, different time intervals): lower than 2%
2 | C=CCSSC[C@H](NC(C)=O)C(=O)O [ASSNAC, S-allylmercapto-N-acetylcysteine] | 4 | significant increase in glutathione cellular level | 60 | 200 | 8.2 ± 4.2 (n = 4) | 2.3 ± 1.0 (n = 4) | 0.94 | 0.2 | 0.77 | 2.14 | 1.03 | protection of cells from BuOOH oxidation stress (Endothelial cells (EC)): better protection; concentration at which increase in glutathione is observable ([2]; 24 hours): 0.05 mM; concentration of maximal increase in glutathione ([2]; 24 hours): 0.2 mM; maximal increase in glutathione ([2]; 24 hours, at 0.2 mM): 2.4 fold; time of maximal increase in glutathione ([2]; ASSNAC 0.2 mM): 24 h; glutathione level after 24 hours, ASSNAC in comparison to CSSA ([1]; 0.2 mM, 24 hours): higher glutathione level; concentration at which up-regulation of glutathione level starts [1, 6]: 0.05 mM; signs of cytotoxic effect ([1]; up to a concentration of 2.0 mM, 24 hours): without any signs of cytotoxic effect; cytotoxicity after ASSNAC pretreatment ([4]; ASSNAC 0.2 mM 24 hours): 25%; concentration at which decrease in cytotoxicity starts ([4]; pretreatment 24 hours): 25 µM
3 | lipopolysacharide [LPS] | – | – | – | – | – | – | 104.7 | – | 0.71 | 5.7 | 19.52 | –
4 | C=CCS[S+]([O-])CC=C (centres unmarked) [Allicin] | – | – | – | – | – | – | – | – | – | – | – | Maximal Fold Increase (glutathione level) [5]: 8; Maximal effect (increased glutathione level) [5]: 20 µM; EC50 ([5]; read-out: HALF-maximal (effect of increased glutathione level)): 7 µM
5 | S=C(S)N1CCCC1 [PDTC, Pyrrolidine dithiocarbamate] | – | – | – | – | – | – | – | – | – | – | – | reduced glutathione (GSH) versus PDTC concentration ([1]; 24 hours, increasing concentrations, FIG. 6A): concentration dependent increase; concentration of GSH versus time ([1]; PDTC 0.1 mM, increasing time intervals, FIG. 6B): linear increase
6 | CC(=O)N[C@@H](CS)C(=O)O [NAC, N-acetylcysteine] | 2.5 | – | 320 | 500 | 0.9 ± 0.1 (n = 3) | 1.0 ± 0.2 (n = 3) | – | 2 | – | – | – | time to maximal increase in glutathione level ([1]; NAC 2 mM): 6 h
